Measurements: patent US20260374766A1, “METHODS FOR TREATING CANCER” (Antares Therapeutics, Inc., priority 2022, published 2026)
pIC50, pKd: −log10 of the molar value. Like-named read-outs stand apart in the source and are kept apart here.

Assays:
[1] = molecular target: T1, p53 Y220C mutant protein (amino acid residues 94-293) (Homo sapiens, UniProt P04637, Y220C); assay: Surface Plasmon Resonance (SPR) assay, Kd_kinetic; type: binding; settings: read-out: SPR P53 Y220C KD kinetic
T1 construct: p53 Y220C mutant protein (amino acid residues 94-293)
Method in brief: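 Binding measured by SPR on a Biacore 8K in running buffer of 50 mM Tris pH 7.5, 100 mM NaCl, 1 mM DTT, 0.01% Brij35, 0.05% Tween-20, 1% DMSO.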

[2] = molecular target: T1, p53 Y220C mutant protein (amino acid residues 94-293); assay: Thermal Shift Assay (TSA), dTM; type: binding; settings: for ΔTm at 100 µM: 100 uM compound; for ΔTm at 10 µM: 10 uM compound
Method in brief: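 Recombinant p53 Y220C core (residues 94-293) at 5 μM was incubated with 10 μM or 100 μM compound for 3 hours at 20 °C in 20 mM HEPES pH7.4, 100 mM NaCl, 0.01% Pluronic F-127, 1% DMSO with 400-fold diluted Sypro Orange. Melting was followed from 30 °C to 50 °C at 0.03 °C/second, and TM came from a Boltzmann two-state fit.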

p53 Y220C = p53 Y220C (Homo sapiens, UniProt P04637, Y220C); assay: Luciferase Reporter Assay (Luc), p53 response element, NClH1299 cells with inducible p53 Y220C; type: cell-based; settings: 6 hour; for AC50: read-out: Luc P53 Y220C AC50
Method in brief: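 Luminescence readout (One-Glo, 5 min shaking at RT, read at once) after 6 h compound exposure; cells pre-induced 24 h with 0.5 ug/mL doxycycline, 5,000/well.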

NUGC3 p53 Y220C = assay: Cell Proliferation Assay (CellTiter-Glo, CTG), NUGC3 p53 Y220C; type: cell-based; settings: Homo sapiens, NUGC-3, 120 h, 5 days
Method in brief: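 NClH1299 lines stably transduced with Tet-inducible p53 Y220C or R273H, plus NUGC3, were treated with compound for 5 days at 250-500 cells/well. IC50 derived from CellTiter-Glo luminescent signal after 10 min room-temperature incubation.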

H1299 p53 Y220C = assay: Cell Proliferation Assay (CellTiter-Glo, CTG), H1299 p53 Y220C (NClH1299-inducible p53 Y220C); type: cell-based; settings: Homo sapiens, NCI-H1299, 120 h, 5 days
Method in brief: (§1)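 Cells seeded at 250-500 per well and exposed to compound for 5 days. Viability read by CellTiter-Glo luminescence after 10 min at room temperature; IC50 calculated. H1299 lines carry Tet-One inducible p53 mutant constructs introduced by lentiviral transduction.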

H1299 p53 R273H = assay: Cell Proliferation Assay (CellTiter-Glo, CTG), H1299 p53 R273H (NClH1299-inducible p53 R273H); type: cell-based; settings: Homo sapiens, NCI-H1299, 120 h, 5 days
Method in brief: as §1

[3] = thermal shift, read-out: TSA P53 Y220C dTM (100 uM)
[4] = luciferase reporter, NClH1299 inducible p53 Y220C, 10 uM tool compound as positive control
[5] = luciferase reporter, NClH1299 inducible p53 Y220C
[6] = thermal shift, read-out: TSA P53 Y220C dTM (10 uM)
[7] = p53 Y220C, read-out: TSA P53 Y220C dTM
[8] = AC50, luciferase reporter, NClH1299 inducible p53 Y220C
[9] = Emax, luciferase reporter, NClH1299 inducible p53 Y220C
[10] = NClH1299-inducible p53 Y220C cells, CellTiter-Glo
[11] = NClH1299-inducible p53 R273H cells, CellTiter-Glo

Row | Structure (SMILES) | pKd ([1]; SPR, kinetic KD, p53 Y220C) | ΔTm at 100 µM [2, 3] | Emax (p53 Y220C; [4]) | AC50 (p53 Y220C; [5]) | pIC50 (NUGC3 p53 Y220C; CellTiter-Glo, NUGC3 p53 Y220C) | pIC50 (H1299 p53 Y220C; CellTiter-Glo, H1299 p53 Y220C) | pIC50 (H1299 p53 R273H; CellTiter-Glo, H1299 p53 R273H) | ΔTm at 10 µM [2, 6] | also measured
1 | CCOc1cc(C(=O)NC)ccc1NCC#Cc1nc2c(N[C@@H]3CCN(C)C[C@@H]3F)cccn2c1CC(F)(F)F [Example 59, 3-ethoxy-4-{[3-(8-{[(3S,4R)-3-fluoro-1-methylpiperidin-4-yl]amino}-3-(2,2,2-trifluoroethyl)imidazo[1,2-a]pyridin-2-yl)prop-2-yn-1-yl]amino}-N-methylbenzamide] | > 8.00 | 5 to 10 °C | 70 to 80% | 1500 to 3000 nM | 5.82 to 6.12 | 5.82 to 6.12 | ≤ 5.00 | – | –
2 | CNC(=O)c1ccc(NCC#Cc2nc3c(N[C@@H]4CCn5cncc5C4)cccn3c2SC(F)(F)F)c(OC)c1 [Example 176] | 7.00 to 8.00 | ≥ 10 °C | 70 to 80% | 750 to 1500 nM | 5.52 to 5.82 | 5.82 to 6.12 | 5.10 to 5.30 | 5 to 10 °C | –
3 | CNC(=O)c1ccc(OC)c(NCC#Cc2nc3c(N[C@@H]4C[C@H]5CC[C@H](N5)[C@@H]4F)cccn3c2SC(F)(F)F)c1 [Example 202] | > 8.00 | ≥ 10 °C | 70 to 80% | < 750 nM | > 6.12 | > 6.12 | 5.00 to 5.10 | ≥ 10 °C | –
4 | CNC(=O)c1ccc(NCC#Cc2nc3c(N[C@@H]4CCN(C)C[C@@H]4F)cccn3c2C2CC2)c(OC)c1 [Example 29, 4-{[3-(3-cyclopropyl-8-{[(3S,4R)-3-fluoro-1-methylpiperidin-4-yl]amino}imidazo[1,2-a]pyridin-2-yl)prop-2-yn-1-yl]amino}-3-methoxy-N-methylbenzamide] | 6.00 to 7.00 | 5 to 10 °C | < 70% | > 3000 nM | < 5.52 | < 5.52 | ≤ 5.00 | – | –
5 | CNC(=O)c1ccc(NCC#Cc2nc3c(N[C@@H]4CCN(C)C[C@@H]4F)cccn3c2CC(F)(F)F)c(C#N)c1 [Example 56, 3-cyano-4-{[3-(8-{[(3S,4R)-3-fluoro-1-methylpiperidin-4-yl]amino}-3-(2,2,2-trifluoroethyl)imidazo[1,2-a]pyridin-2-yl)prop-2-yn-1-yl]amino}-N-methylbenzamide] | 7.00 to 8.00 | ≥ 10 °C | 80 to 90% | > 3000 nM | < 5.52 | < 5.52 | ≤ 5.00 | – | –
6 | CNC(=O)c1ccc(OC2COC2)c(NCC#Cc2cc3c(N[C@@H]4CCN(C)C[C@@H]4F)nccn3c2SC(F)(F)F)c1 [Example 336] | – | – | – | – | – | – | – | – | pKd ([1]; SPR, p53 Y220C): > 8.00; ΔTm at 10 µM [2, 7]: ≥ 10 °C; AC50 (p53 Y220C; [8]): < 750 nM; Emax (p53 Y220C; [9]): > 90%; pIC50 (NUGC3 p53 Y220C; NUGC3 cells, CellTiter-Glo): > 6.12; pIC50 (H1299 p53 Y220C; [10]): > 6.12; pIC50 (H1299 p53 R273H; [11]): > 5.30
7 | CNC(=O)c1ccc(NCC#Cc2nc3c(N[C@H]4CCN(C)C(=O)C4)cccn3c2SC(F)(F)F)c(OC)c1 [Example 168] | > 8.00 | 5 to 10 °C | > 90% | 750 to 1500 nM | > 6.12 | > 6.12 | ≤ 5.00 | ≥ 10 °C | –
8 | COc1cc(S(C)(=O)=O)ccc1NCC#Cc1cc2c(N[C@@H]3CCN(C)C[C@@H]3F)cccn2c1SC(F)(F)F [Example 341] | – | – | – | – | – | – | – | – | pKd ([1]; SPR, p53 Y220C): > 8.00; ΔTm at 10 µM [2, 7]: ≥ 10 °C; AC50 (p53 Y220C; [8]): < 750 nM; Emax (p53 Y220C; [9]): > 90%; pIC50 (NUGC3 p53 Y220C; NUGC3 cells, CellTiter-Glo): > 6.12; pIC50 (H1299 p53 Y220C; [10]): > 6.12; pIC50 (H1299 p53 R273H; [11]): 5.10 to 5.30
9 | CNC(=O)c1cc(OC)c(NCC#Cc2nc3c(N[C@@H]4CCN(C)C[C@@H]4F)cccn3c2SC(F)(F)F)cc1Cl [Example 121] | > 8.00 | ≥ 10 °C | > 90% | < 750 nM | > 6.12 | > 6.12 | 5.00 to 5.10 | ≥ 10 °C | –
10 | CNC(=O)c1cccc(NCC#Cc2nc3c(N[C@@H]4CCN(C)C[C@@H]4F)cccn3c2SC(F)(F)F)c1 [Example 149] | – | ≥ 10 °C | 80 to 90% | < 750 nM | > 6.12 | > 6.12 | ≤ 5.00 | ≥ 10 °C | pKd [1]: > 8.00
11 | COc1cc2c[nH]nc2cc1NCC#Cc1nc2c(N[C@@H]3CCN(C)C[C@@H]3F)cccn2c1SC(F)(F)F [Example 308, N-[3-(8-{[(3S,4R)-3-fluoro-1-methylpiperidin-4-yl]amino}-3-[(trifluoromethyl)sulfanyl]imidazo[1,2-a]pyridin-2-yl)prop-2-yn-1-yl]-5-methoxy-2H-indazol-6-amine] | – | – | – | – | – | – | – | – | pKd ([1]; SPR, p53 Y220C): > 8.00; ΔTm at 10 µM [2, 7]: ≥ 10 °C; ΔTm at 100 µM [2, 7]: ≥ 10 °C; AC50 (p53 Y220C; [8]): < 750 nM; Emax (p53 Y220C; [9]): 80 to 90%; pIC50 (NUGC3 p53 Y220C; NUGC3 cells, CellTiter-Glo): > 6.12; pIC50 (H1299 p53 Y220C; [10]): > 6.12; pIC50 (H1299 p53 R273H; [11]): > 5.30
12 | CNC(=O)c1ccc(NCC#Cc2nn3c(N[C@@H]4CCN(C)C[C@@H]4F)cccc3c2CC(F)(F)F)c(OC)c1 [Example 118] | 7.00 to 8.00 | 5 to 10 °C | 70 to 80% | 1500 to 3000 nM | 5.52 to 5.82 | 5.52 to 5.82 | ≤ 5.00 | – | –
13 | CNC(=O)c1cnc(NCC#Cc2nc3c(N[C@@H]4CCN(C)C[C@@H]4F)cccn3c2SC(F)(F)F)n1C [Example 161] | 7.00 to 8.00 | ≥ 10 °C | < 70% | > 3000 nM | 5.52 to 5.82 | 5.52 to 5.82 | ≤ 5.00 | 5 to 10 °C | –
14 | CCOc1cc(C(=O)NC)ccc1NCC#Cc1nc2c(N[C@@H]3CCN(C)C[C@@H]3F)cccn2c1SC(F)(F)F [Example 127] | > 8.00 | ≥ 10 °C | 80 to 90% | < 750 nM | > 6.12 | > 6.12 | 5.00 to 5.10 | ≥ 10 °C | –
15 | CNC(=O)c1cc(NCC#Cc2nc3c(N[C@@H]4CCN(C)C[C@@H]4F)cccn3c2SC(F)(F)F)c(OC)cc1F [Example 170] | > 8.00 | ≥ 10 °C | 80 to 90% | < 750 nM | > 6.12 | > 6.12 | ≤ 5.00 | ≥ 10 °C | –
16 | CNC(=O)c1cnc(NCC#Cc2nc3c(N[C@@H]4CCN(C)C[C@@H]4F)cccn3c2SC(F)(F)F)c(OC)c1 [Example 136] | > 8.00 | ≥ 10 °C | 70 to 80% | 1500 to 3000 nM | < 5.52 | < 5.52 | 5.00 to 5.10 | 5 to 10 °C | –
17 | COc1cc(S(C)(=O)=O)ccc1NCC#Cc1nc2c(NC3CCN(C)CC3)cccn2c1CC(F)(F)F [Example 2, N-(2-{3-[(4-methanesulfonyl-2-methoxyphenyl)amino]prop-1-yn-1-yl}-3-(2,2,2-trifluoroethyl)imidazo[1,2-a]pyridin-8-yl)-1-methylpiperidin-4-amine] | 7.00 to 8.00 | ≥ 10 °C | < 70% | > 3000 nM | 5.52 to 5.82 | 5.52 to 5.82 | 5.10 to 5.30 | – | –
18 | CN1CC[C@@H](Nc2cccn3c(SC(F)(F)F)c(-c4noc(CNC(=O)C5CC5)n4)nc23)[C@@H](F)C1 [Example 458] | – | – | – | – | – | – | – | – | pKd ([1]; SPR, p53 Y220C): 7.00 to 8.00; ΔTm at 10 µM ([2]; read-out: TSA P53 Y220C dTM): 5 to 10 °C; ΔTm at 100 µM ([2]; read-out: TSA P53 Y220C dTM): 5 to 10 °C; AC50 (p53 Y220C; AC50, NClH1299 cells with inducible p53 Y220C): > 3000 nM; Emax (p53 Y220C; Emax, NClH1299 cells with inducible p53 Y220C, 10 uM tool compound as positive control): < 70%; pIC50 (NUGC3 p53 Y220C; NUGC3 cells): < 5.52; pIC50 (H1299 p53 Y220C; NClH1299-inducible p53 Y220C cells): < 5.52; pIC50 (H1299 p53 R273H; NClH1299-inducible p53 R273H cells): ≤ 5.00
